Experimental findings from patent publication US5859025A, “Fluoroalkyl- and fluoroalkoxy-substituted heterocyclic bradykinin antagonists, process for their preparation, and their use” (Hoechst Aktiengesellschaft, priority 1996, dated 1999) are described below.

SMILES strings stand for the structures.

Assay [1] concerns bradykinin contraction of the isolated rabbit jugular vein. In words: in-vitro duration of action on the isolated rabbit jugular (bradykinin-induced contraction). It counts as cell-based, rabbit (white New Zealand). Conditions: for inhibition at 10 µM: Oryctolagus cuniculus, 0.25 h, time 15 min, test substance (10^-5 M) present in bath, bradykinin 10^-7 M; for inhibition at 10 µM / Inhibition of the bradykinin contraction in %: mean, n=6; for inhibition after 4 h (in words): test substance 10^-5 M; for Inhibition of the bradykinin contraction in %: after rinsing (test substance 10^-5 M no longer in bath). How it is done: The compounds of Examples 1, X and Y were compared. Examples X and Y are described in EP-A 622 361.
Comparison of the in-vitro duration of action of heterocyclic bradykinin antagonists on the isolated rabbit jugular
Male rabbits (white New Zealand, breeder: Mollegaard, Denmark, 2.5-3.0 kg) are killed by injection of an overdose of Pentobarbital-Na (1 ml of Narcoren®+0.5 ml of heparin). The two jugular veins are exposed, cut spirally and pieces of about 1.5 cm length are suspended in buffered organ baths (Krebs-Henseleit buffer) at a pretension of 0.5 g.
After a rest period of 30 min, contractions are induced by addition of bradykinin (10^-7 M), which serve as the starting value. Test substances are then added at a concentration of 10^-5 M. The inhibitory values shown are mean values (n=6). […] The bradykinin contraction is then ended by rinsing with just buffer solution.
At each further time shown, stimulation was again carried out with bradykinin (in the absence of the test substance in the bath fluid) and at the end of the contraction the bath fluid was replaced by just buffer solution.

In another assay the target is T1, bradykinin B2 receptor (Cavia porcellus, UniProt O70526).
T1 construct: The guinea-pig ilea are roughly freed of the intestinal contents by careful stripping; from tissue; host or cells: guinea-pig ileum, membrane preparation
T1 sequence (O70526 1-372): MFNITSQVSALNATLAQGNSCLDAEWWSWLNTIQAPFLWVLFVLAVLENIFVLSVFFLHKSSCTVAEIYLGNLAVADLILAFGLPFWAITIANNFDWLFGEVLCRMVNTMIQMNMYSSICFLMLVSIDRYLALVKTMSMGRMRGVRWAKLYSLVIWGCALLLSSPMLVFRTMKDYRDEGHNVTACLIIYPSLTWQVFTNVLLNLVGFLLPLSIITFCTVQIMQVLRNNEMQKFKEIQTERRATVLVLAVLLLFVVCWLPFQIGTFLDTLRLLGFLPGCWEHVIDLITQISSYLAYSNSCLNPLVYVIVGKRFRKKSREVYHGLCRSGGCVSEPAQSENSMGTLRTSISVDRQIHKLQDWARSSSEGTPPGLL
In words: binding to the bradykinin B2 receptor of the guinea-pig ileum (3H-bradykinin competition). The settings on record: 3H-bradykinin 0.25 to 0.3 nmol/l, guinea-pig ileum membranes; for Ki: LIGAND program; for IC50: room temperature, 60 minutes. On the procedure:
The measurement of the binding to the bradykinin B2 receptor of the guinea-pig ileum is described in the following (R. B. Innis et al., Proc. Natl. Acad. Sci. USA; 17 (1981) 2630): […]
25 mM TES (SIGMA, Order No: T-4152)
1 mM 1,10-phenanthroline (SIGMA; Order No: P-9375)
25 mM TES (SIGMA; Order No.: T-4152)
1 mM 1,10-phenanthroline (SIGMA; Order No.: P-9375)
0,1% albumin, bovine (SIGMA; Order No.: A-7906)
140 mg/ml bacitracin (SIGMA; Order No.: B-0125)
1 mM dithiothreitol (SIGMA; Order No.: D-0632)
1 mM captopril® 1-[(2S)-3-mercapto-2-methylpropionyl]-L-proline
Both buffers are adjusted to pH 6.8 using 5 molar NaOH.
The guinea-pig ilea are roughly freed of the intestinal contents by careful stripping and cleaned in 0.9% strength NaCl solution. The pieces of ilea, which are about 2 cm long, are transferred to ice-cold TES buffer (about 1 g/10 ml) and homogenized in an ice-bath for 30 sec. using an Ultraturrax. The homogenate is then filtered through 3 layers of gauze and the filtrate is centrifuged at 50,000 g for 10 minutes. The supernatant is discarded, and the pellet is rehomogenized in the same volume of TES buffer and centrifuged again at 50,000 g for 10 minutes. The pellet is rehomogenized in incubation buffer (about 1 g/5 ml) and frozen at -70° C. in cryotubes, divided into 2 ml portions.
The protein concentration of the ready-to-use membrane suspension is determined according to LOWRY and should be about 15 mg/100 ml.
All incubations are carried out at room temperature for 60 minutes on microtiter plates (96×300 ml) in 200 ml volumes. All mixtures in incubation buffer. To this end, 50 ml of the radioligand, 50 ml of the preparation to be tested and 100 ml of the membrane suspension are pipetted successively into the depressions of the microtiter plate. […]
a) Saturation Experiments (hot saturation)
Preparation of the ^3 H-bradykinin solution: For the saturation experiments, the concentrations 0.05, 0.1, 0.2, 0.4, 0.6, 0.8, 1.0, 1.5, 2.0, 2.5 and 3.0 nmol/l are employed, which correspond to 0.05 to 3.0 pmol/ml. After the preparation of the corresponding dilutions, 50 ml each per sample are initially introduced.
Nonspecific binding: For each concentration of the radioactive ligand, the nonspecific binding must be determined. This can be achieved by addition of a high concentration (1-100 mmol) of the unlabeled ligand, other antagonists or agonists of the bradykinin receptor. […] For this, 1.862 mg are dissolved in 1 ml of dimethyl sulfoxide (DMSO), diluted 1:25 with incubation buffer and 50 ml of this solution are added to the samples in the microtiter plates. The reaction is started by the addition of […] of the membrane suspension. […]
b) Competition Experiments (IC50)
Here a fixed quantity of the radioactive ligand (0.25 to 0.3 nmol/l of ^3 H-bradykinin) and various concentrations of the unlabeled agonists or antagonists are employed. 50 ml of the preparations or standards to be tested in the concentrations 10^-5 to 10^-10 mol/l are added to in each case 50 ml of the ^3 H-bradykinin solution and the reaction is started by addition of […] of membrane suspension. In this test too, triplicate determinations are carried out and three samples are incubated with […] of HOE 140 to determine the nonspecific binding.
The preparations to be tested for competition are always dissolved at a concentration of 1 mmol/l in dimethyl sulfoxide (DMSO), and then further diluted with DMSO. This solution is then diluted 1:25 with incubation buffer.
After incubation, the samples are filtered off in a Skatron cell harvester through a Whatmann GF/B filter previously moistened with 0.1% PEI (polyethylenimine) and washed with 10 ml of ice-cold TES buffer per sample. The still moist filters are punched out into mini-scintillation tubes and the tubes are filled with 3 ml of scintillator. After about 12 hours soaking time, the samples are briefly shaken and measured in a beta counter. […]

In assay [2] the test system is bradykinin-induced contraction of the guinea-pig ileum. In words: antagonist action on the bradykinin-induced contraction of the guinea-pig ileum. It counts as cell-based. Conditions: Cavia porcellus, 10 min; isolated guinea-pig ileum, bradykinin 4×10^-8 mol/l, time of action 10 min, 37° C. How it is done: The determinations of the antagonist action on the bradykinin-induced contraction of the guinea-pig ileum were carried out according to the following protocol:
Guinea-pigs weighing about 300 g (Morioth strain,--) are killed by a blow to the neck and exsanguinated. The ileum is dissected out in a length of about 20 cm, rinsed with Tyrode solution (Record syringe) and thus freed of intestinal contents. It is then divided into sections 1.5 cm long. These are fixed in organ baths of capacity 10 ml, which are filled with Tyrode solution, and connected to extension-measuring strips (isometric contraction measurement). The preload is 1 g. The Tyrode solution is warmed to 37° C. in a water bath and bubbled through with compressed air. After an interval of 30 min. the experiment is begun. After recording the biological zero line, bradykinin at a final concentration of 4×10^-8 mol/l per organ bath is added and the […] is recorded. The organ bath is then rinsed for 3 min with Tyrode solution and, after a break of 20 min., bradykinin is added again. The maximum of the contraction is achieved (control). Rinse again, break. The bradykinin antagonist is then added (time of action 10 min). Bradykinin is then added again and the ensuing contraction is compared with that of the control. The experiment is recorded on a pen recorder. […]
______________________________________ […]

With `Cc1ccc(/C=C/C(=O)NCC(=O)N(C)c2ccc(Cl)c(COc3cccc4ccc(C)nc34)c2Cl)cc1` [Example X], the inhibition at 10 µM in assay [1] was 97%. Moreover, the “inhibition after 4 h (in words)” value in assay [1] is “no longer show any inhibition”. Besides, the “Inhibition of the bradykinin contraction in %” value (from here on “Inhibition … in %”) in assay [1] (time 120 min) amounted to 95%; in assay [1] (time 150 min) it was 87%; in assay [1] (time 180 min), 74%; in assay [1] (time 210 min), 58%; in assay [1] (time 240 min) it was 30%.
In turn, `Cc1ccc2cccc(OCc3c(Cl)ccc(N(C)C(=O)CNC(=O)/C=C/c4ccc(C(F)(F)F)cc4)c3Cl)c2n1` [Example 1, 8-[3-(N-(4-trans-Trifluoromethylcinnamoylglycyl)-N-methylamino)-2,6-dichlorobenzyloxy]-2-methylquinoline] returned an inhibition constant Ki on bradykinin B2 receptor of 1 nM. Also, the IC50 is 9 nM on bradykinin B2 receptor and 44 nM in assay [2]. The compound further had an inhibition at 10 µM in assay [1] of 98%. The “in-vitro duration of action (in words)” value in assay [1] (isolated rabbit jugular, compared with Examples Y and X) is “distinctly longer in-vitro duration of action”. Besides, the “Inhibition … in %” value in assay [1] (time 30 min, bradykinin) amounted to 99%; in assay [1] (time 60 min) it was 99%; in assay [1] (time 210 min) it was 95%; in assay [1] (time 240 min) it was 92%; in assay [1] (time 270 min), 87%; in assay [1] (time 300 min), 78%. Also, the “Inhibition … in %” value is 71% in assay [1] (time 330 min) and 68% in assay [1] (time 360 min (6 h)).
At bradykinin B2 receptor, `Cc1ccc2cccc(OCc3c(Cl)ccc(N(C)C(=O)CNC(=O)Cc4ccc(C(F)(F)F)cc4)c3Cl)c2n1` [Example 8] registered an inhibition constant Ki of 3.4 nM and an IC50 of 28 nM.
On bradykinin B2 receptor, `Cc1ccc2cccc(OCc3c(Cl)ccc(N(C)C(=O)CNC(=O)OCc4ccc(OC(F)(F)F)cc4)c3Cl)c2n1` [Example 22] displayed an inhibition constant (Ki) of 10 nM and an IC50 of 95 nM.
Take `Cc1ccc2cccc(OCc3c(Cl)ccc(N(C)C(=O)CNC(=S)Nc4cccc(C(F)(F)F)c4)c3Cl)c2n1` [Example 29, 8-[3-N-(3-Trifluoromethylphenylthioureidoacetyl-N-methylamino)-2,6-dichlorobenzyloxy]-2-methylquinoline]: on bradykinin B2 receptor, the Ki was determined as 5.1 nM and the half-inhibitory concentration (IC50) came to 38 nM.
At bradykinin B2 receptor, `Cc1ccc2c(C)ccc(OCc3c(Cl)ccc(N(C)C(=O)CNC(=O)/C=C/c4ccc(C(F)(F)F)cc4)c3Cl)c2n1` [Example 2] came in with a Ki of 4 nM and an IC50 of 40 nM. In assay [2], this compound registered an IC50 of 1500 nM.
In the case of `COc1cccc(/C=C/C(=O)NCC(=O)N(C)c2ccc(Cl)c(COc3cccc4ccc(C)nc34)c2Cl)c1` [Example Y], the inhibition at 10 µM in assay [1] turned out to be 96%. In addition, the “inhibition after 4 h (in words)” value in assay [1] is given as “no longer show any inhibition”. Moreover, the “Inhibition … in %” value in assay [1] (time 30 min, bradykinin) was 97%; in assay [1] (time 180 min), 84%; in assay [1] (time 210 min) it was 59%; in assay [1] (time 240 min), 31%; in assay [1] (time 270 min), 3%.

Broadly, the inhibition is how much of the control response was suppressed. Low readings indicate a weak effect, high ones a strong effect. The Ki is the equilibrium dissociation constant of an inhibitor or competing ligand from its target. A lower Ki goes with tighter binding. The term IC50 denotes the midpoint of a concentration-inhibition curve. Low values mean inhibition by little substance, high ones a need for much substance.
